Data from PubChem BioAssay AID1963858 (Molecular Pharmacology Branch, DTP, NCI, 2024).
Calls of active or inactive are those of the source. Rule for the calls: active = viability on the fitted dose curve at most 10% of control; inactive = the rest.

Test system: HOP-62 multicell spheroids with HUVEC/MSC, viability
Assay: Anticancer human tumor HOP-62 cell line growth inhibition [KRAS2];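 for IC50: viability read after a week of compound exposure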;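 for viability, T/C: viability read after a week of compound exposure; 100% = DMSO vehicle-treated spheroids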
Details: for IC50: curve of first compound; for viability, T/C: stronger effect = lower value
Outline: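 KRAS-mutant tumor cells were grown as spheroids with HUVEC endothelial cells and human MSCs as stroma. Targeted agents were tested alone and with KRAS pathway inhibitors. Doses started at or near clinical Cmax, or 10 microM, descending half-log.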

[1] = second compound 0.1 µM, first compound 0.0316 µM
[2] = second compound 0.1 µM, first compound 0.1 µM
[3] = second compound 0.1 µM, first compound 0.316 µM
[4] = second compound 0.1 µM, first compound 1 µM
[5] = second compound 0.1 µM, first compound 3.16 µM
[6] = second compound 0.1 µM, first compound 10 µM
[7] = second compound 0.316 µM, first compound 0.0316 µM
[8] = second compound 0.316 µM, first compound 0.1 µM
[9] = second compound 0.316 µM, first compound 0.316 µM
[10] = second compound 0.316 µM, first compound 1 µM
[11] = second compound 0.316 µM, first compound 3.16 µM
[12] = second compound 0.316 µM, first compound 10 µM
[13] = second compound 1 µM, first compound 0.0316 µM
[14] = second compound 1 µM, first compound 0.1 µM
[15] = second compound 1 µM, first compound 0.316 µM
[16] = second compound 1 µM, first compound 1 µM
[17] = second compound 1 µM, first compound 3.16 µM
[18] = second compound 1 µM, first compound 10 µM
[19] = second compound 3.16 µM, first compound 0.0316 µM
[20] = second compound 3.16 µM, first compound 0.1 µM
[21] = second compound 3.16 µM, first compound 0.316 µM
[22] = second compound 3.16 µM, first compound 1 µM
[23] = second compound 3.16 µM, first compound 3.16 µM
[24] = second compound 3.16 µM, first compound 10 µM
[25] = second compound 10 µM, first compound 0.0316 µM
[26] = second compound 10 µM, first compound 0.1 µM
[27] = second compound 10 µM, first compound 0.316 µM
[28] = second compound 10 µM, first compound 1 µM
[29] = second compound 10 µM, first compound 3.16 µM
[30] = second compound 10 µM, first compound 10 µM
[31] = second compound 0.1 µM, first compound 0.000316 µM
[32] = second compound 0.1 µM, first compound 0.001 µM
[33] = second compound 0.1 µM, first compound 0.00316 µM
[34] = second compound 0.1 µM, first compound 0.01 µM
[35] = second compound 0.316 µM, first compound 0.000316 µM
[36] = second compound 0.316 µM, first compound 0.001 µM
[37] = second compound 0.316 µM, first compound 0.00316 µM
[38] = second compound 0.316 µM, first compound 0.01 µM
[39] = second compound 1 µM, first compound 0.000316 µM
[40] = second compound 1 µM, first compound 0.001 µM
[41] = second compound 1 µM, first compound 0.00316 µM
[42] = second compound 1 µM, first compound 0.01 µM
[43] = second compound 3.16 µM, first compound 0.000316 µM
[44] = second compound 3.16 µM, first compound 0.001 µM
[45] = second compound 3.16 µM, first compound 0.00316 µM
[46] = second compound 3.16 µM, first compound 0.01 µM

CC1(C)CCC(CN2CCN(c3ccc(C(=O)NS(=O)(=O)c4ccc(NCC5CCOCC5)c([N+](=O)[O-])c4)c(Oc4cnc5[nH]ccc5c4)c3)CC2)=C(c2ccc(Cl)cc2)C1 + CC1OCC2(CCN(c3cnc(Sc4ccnc(N)c4Cl)c(N)n3)CC2)C1N
IC50 (second compound 0.1 µM): 3720 nM | IC50 (second compound 0.316 µM): 3280 nM | IC50 (second compound 1 µM): 1310 nM | IC50 (second compound 3.16 µM): < 31.6 nM | IC50 (second compound 10 µM): < 31.6 nM | viability, T/C [1]: 76.5% | viability, T/C [2]: 73% | viability, T/C [3]: 70% | viability, T/C [4]: 72% | viability, T/C [5]: 54.3% | viability, T/C [6]: 17.2% | viability, T/C [7]: 72.3% | viability, T/C [8]: 62.2% | viability, T/C [9]: 68.3% | viability, T/C [10]: 67.6% | viability, T/C [11]: 51.1% | viability, T/C [12]: 12.6% | viability, T/C [13]: 62.3% | viability, T/C [14]: 54.4% | viability, T/C [15]: 52% | viability, T/C [16]: 50.1% | viability, T/C [17]: 44.6% | viability, T/C [18]: 10.6% | viability, T/C [19]: 47.9% | viability, T/C [20]: 45% | viability, T/C [21]: 36.6% | viability, T/C [22]: 26.7% | viability, T/C [23]: 18.1% | viability, T/C [24]: 10.7% | viability, T/C [25]: 37.5% | viability, T/C [26]: 32.9% | viability, T/C [27]: 32% | viability, T/C [28]: 26.6% | viability, T/C [29]: 26.5% | viability, T/C [30]: 6.62%

CN(C)C/C=C/C(=O)Nc1cc2c(Nc3ccc(F)c(Cl)c3)ncnc2cc1O[C@H]1CCOC1 + CC1OCC2(CCN(c3cnc(Sc4ccnc(N)c4Cl)c(N)n3)CC2)C1N
IC50 (second compound 0.1 µM): > 100 nM | IC50 (second compound 0.316 µM): > 100 nM | IC50 (second compound 1 µM): > 100 nM | IC50 (second compound 3.16 µM): > 100 nM | IC50 (second compound 10 µM): < 0.316 nM | viability, T/C [31]: 112% | viability, T/C [32]: 109% | viability, T/C [33]: 103% | viability, T/C [34]: 95.4% | viability, T/C [1]: 102% | viability, T/C [2]: 91.3% | viability, T/C [35]: 97.6% | viability, T/C [36]: 93.9% | viability, T/C [37]: 104% | viability, T/C [38]: 86.2% | viability, T/C [7]: 90.9% | viability, T/C [8]: 79.2% | viability, T/C [39]: 110% | viability, T/C [40]: 106% | viability, T/C [41]: 107% | viability, T/C [42]: 102% | viability, T/C [13]: 105% | viability, T/C [14]: 104% | viability, T/C [43]: 60.8% | viability, T/C [44]: 46.2% | viability, T/C [45]: 53.3% | viability, T/C [46]: 53.3% | viability, T/C [19]: 56.7% | viability, T/C [20]: 47.1% | outcome (second compound 10 µM, first compound 0.000316 µM): inactive | outcome (second compound 10 µM, first compound 0.001 µM): inactive | viability, T/C (second compound 10 µM, first compound 0.00316 µM): 43.6% | outcome (second compound 10 µM, first compound 0.01 µM): inactive | viability, T/C [25]: 49.4% | viability, T/C [26]: 46.8%

COc1cc2nccc(Oc3ccc(NC(=O)C4(C(=O)Nc5ccc(F)cc5)CC4)cc3)c2cc1OC + CNCc1ccccc1-c1csc(C(C)Nc2nc(C)nc3cc(OC)c(OC)cc23)c1
IC50 (second compound 0.1 µM): 5360 nM | IC50 (second compound 0.316 µM): 4800 nM | IC50 (second compound 1 µM): 3670 nM | IC50 (second compound 3.16 µM): < 31.6 nM | IC50 (second compound 10 µM): < 31.6 nM | viability, T/C [1]: 92.4% | viability, T/C [2]: 94.1% | viability, T/C [3]: 102% | viability, T/C [4]: 96.3% | viability, T/C [5]: 76% | viability, T/C [6]: 19.3% | viability, T/C [7]: 90.6% | viability, T/C [8]: 82.8% | viability, T/C [9]: 81.7% | viability, T/C [10]: 86.9% | viability, T/C [11]: 69.8% | viability, T/C [12]: 15.2% | viability, T/C [13]: 74.7% | viability, T/C [14]: 79.2% | viability, T/C [15]: 85.6% | viability, T/C [16]: 80.7% | viability, T/C [17]: 57.5% | viability, T/C [18]: 0.44% | viability, T/C [19]: 0.34% | viability, T/C [20]: 0.17% | viability, T/C [21]: 0.13% | viability, T/C [22]: 0.15% | viability, T/C [23]: 0.22% | viability, T/C [24]: 0.14% | viability, T/C [25]: 0.12% | viability, T/C [26]: 0.14% | viability, T/C [27]: 0.12% | viability, T/C [28]: 0.11% | viability, T/C [29]: 0.12% | viability, T/C [30]: 0.19%

COc1cc2nccc(Oc3ccc(NC(=O)C4(C(=O)Nc5ccc(F)cc5)CC4)cc3)c2cc1OC + C=CC(=O)N1CCN(c2nc(=O)n(-c3c(C)ccnc3C(C)C)c3nc(-c4c(O)cccc4F)c(F)cc23)C(C)C1
IC50 (second compound 0.1 µM): 1710 nM | IC50 (second compound 0.316 µM): 1460 nM | IC50 (second compound 1 µM): 2210 nM | IC50 (second compound 3.16 µM): 1470 nM | IC50 (second compound 10 µM): < 31.6 nM | viability, T/C [1]: 50.1% | viability, T/C [2]: 52.9% | viability, T/C [3]: 53.9% | viability, T/C [4]: 73.4% | viability, T/C [5]: 41.3% | viability, T/C [6]: 21.6% | viability, T/C [7]: 54.2% | viability, T/C [8]: 54.7% | viability, T/C [9]: 57.3% | viability, T/C [10]: 67.6% | viability, T/C [11]: 28.2% | viability, T/C [12]: 37.7% | viability, T/C [13]: 52.9% | viability, T/C [14]: 64.6% | viability, T/C [15]: 63.4% | viability, T/C [16]: 72.3% | viability, T/C [17]: 44% | viability, T/C [18]: 18.4% | viability, T/C [19]: 55.1% | viability, T/C [20]: 57.3% | viability, T/C [21]: 63.8% | viability, T/C [22]: 64.5% | viability, T/C [23]: 29.6% | viability, T/C [24]: 15.4% | viability, T/C [25]: 33% | viability, T/C [26]: 39.8% | viability, T/C [27]: 36.7% | viability, T/C [28]: 36% | viability, T/C [29]: 26.6% | viability, T/C [30]: 6.56%

CC(=O)Nc1cccc(-n2c(=O)n(C3CC3)c(=O)c3c(Nc4ccc(I)cc4F)n(C)c(=O)c(C)c32)c1 + C=CC(=O)N1CCN(c2nc(OCC3CCCN3C)nc3c2CCN(c2cccc4cccc(C)c24)C3)CC1CC#N
IC50 (second compound 0.0316 µM): 1.49 nM | IC50 (second compound 0.1 µM): 1.01 nM | IC50 (second compound 0.316 µM): 0.406 nM | IC50 (second compound 1 µM): < 0.1 nM | IC50 (second compound 3.16 µM): < 0.1 nM | viability, T/C (second compound 0.0316 µM, first compound 0.0001 µM): 83.2% | viability, T/C (second compound 0.0316 µM, first compound 0.000316 µM): 75% | viability, T/C (second compound 0.0316 µM, first compound 0.001 µM): 56.2% | viability, T/C (second compound 0.0316 µM, first compound 0.00316 µM): 38.9% | viability, T/C (second compound 0.0316 µM, first compound 0.01 µM): 23.4% | viability, T/C (second compound 0.0316 µM, first compound 0.0316 µM): 25.5% | viability, T/C (second compound 0.1 µM, first compound 0.0001 µM): 64.8% | viability, T/C [31]: 60.9% | viability, T/C [32]: 50.5% | viability, T/C [33]: 27.4% | viability, T/C [34]: 19.4% | viability, T/C [1]: 24.3% | viability, T/C (second compound 0.316 µM, first compound 0.0001 µM): 52.3% | viability, T/C [35]: 53.6% | viability, T/C [36]: 40% | viability, T/C [37]: 18.4% | viability, T/C [38]: 15.7% | viability, T/C [7]: 17.3% | viability, T/C (second compound 1 µM, first compound 0.0001 µM): 34.4% | viability, T/C [39]: 28.1% | viability, T/C [40]: 18% | viability, T/C [41]: 15% | viability, T/C [42]: 12.5% | viability, T/C [13]: 12.5% | viability, T/C (second compound 3.16 µM, first compound 0.0001 µM): 18.2% | viability, T/C [43]: 1.3% | viability, T/C [44]: 9.7% | viability, T/C [45]: 12.7% | viability, T/C [46]: 1.72% | viability, T/C [19]: 1.33%
